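1) Cells in 96-well plates. 2) Compound, 48 h, 5 concentrations. 3) Linear interpolation between surrounding doses. 4) Unreached endpoint = highest concentration. TGI is the concentration that stops growth completely.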
Legend:
Assay in all cases: NCI anticancer screen, dose series, 48 h
786-0 renal = tested on: 786-0 renal
A498 renal = tested on: A498 renal
A549 NSCLC = tested on: A549 NSCLC
ACHN renal = tested on: ACHN renal
BT-549 breast = tested on: BT-549 breast
CAKI-1 renal = tested on: CAKI-1 renal
CCRF-CEM leukemia = tested on: CCRF-CEM leukemia
COLO 205 colon = tested on: COLO 205 colon
DU-145 prostate = tested on: DU-145 prostate
EKVX NSCLC = tested on: EKVX NSCLC
HCC-2998 colon = tested on: HCC-2998 colon
HCT-116 colon = tested on: HCT-116 colon
HCT-15 colon = tested on: HCT-15 colon
HL-60(TB) leukemia = tested on: HL-60(TB) leukemia
HOP-62 NSCLC = tested on: HOP-62 NSCLC
HOP-92 NSCLC = tested on: HOP-92 NSCLC
HS 578T breast = tested on: HS 578T breast
HT29 colon = tested on: HT29 colon
IGROV1 ovarian = tested on: IGROV1 ovarian
K-562 leukemia = tested on: K-562 leukemia
KM12 colon = tested on: KM12 colon
LOX IMVI melanoma = tested on: LOX IMVI melanoma
M14 melanoma = tested on: M14 melanoma
MALME-3M melanoma = tested on: MALME-3M melanoma
MCF7 breast = tested on: MCF7 breast
MDA-MB-231 breast = tested on: MDA-MB-231 breast
MDA-MB-435 = tested on: MDA-MB-435
MDA-N = tested on: MDA-N
MOLT-4 leukemia = tested on: MOLT-4 leukemia
NCI-H226 lung = tested on: NCI-H226 lung
NCI-H23 lung = tested on: NCI-H23 lung
NCI-H460 lung = tested on: NCI-H460 lung
NCI-H522 lung = tested on: NCI-H522 lung
NCI/ADR-RES ovarian = tested on: NCI/ADR-RES ovarian
OVCAR-3 ovarian = tested on: OVCAR-3 ovarian
OVCAR-4 ovarian = tested on: OVCAR-4 ovarian
OVCAR-5 ovarian = tested on: OVCAR-5 ovarian
OVCAR-8 ovarian = tested on: OVCAR-8 ovarian
PC-3 prostate = tested on: PC-3 prostate
RPMI-8226 leukemia = tested on: RPMI-8226 leukemia
RXF 393 renal = tested on: RXF 393 renal
SF-268 CNS = tested on: SF-268 CNS
SF-295 CNS = tested on: SF-295 CNS
SK-MEL-2 melanoma = tested on: SK-MEL-2 melanoma
SK-MEL-28 melanoma = tested on: SK-MEL-28 melanoma
SK-MEL-5 melanoma = tested on: SK-MEL-5 melanoma
SK-OV-3 ovarian = tested on: SK-OV-3 ovarian
SN12C renal = tested on: SN12C renal
SNB-19 CNS = tested on: SNB-19 CNS
SNB-75 CNS = tested on: SNB-75 CNS
SR leukemia = tested on: SR leukemia
SW-620 colon = tested on: SW-620 colon
T-47D breast = tested on: T-47D breast
TK-10 renal = tested on: TK-10 renal
U251 CNS = tested on: U251 CNS
UACC-257 melanoma = tested on: UACC-257 melanoma
UACC-62 melanoma = tested on: UACC-62 melanoma
UO-31 renal = tested on: UO-31 renal
SF-539 CNS = tested on: SF-539 CNS

O=C(NCc1ccccc1)c1cc2ccccc2oc1=Nc1ccccc1F
TGI (786-0 renal): 24.1 µM | TGI (A498 renal): > 100 µM | TGI (A549 NSCLC): 88.7 µM | TGI (ACHN renal): 58.3 µM | TGI (BT-549 breast): > 100 µM | TGI (CAKI-1 renal): 27.9 µM | TGI (CCRF-CEM leukemia): > 100 µM | TGI (COLO 205 colon): 74.4 µM | TGI (DU-145 prostate): > 100 µM | TGI (EKVX NSCLC): > 100 µM | TGI (HCC-2998 colon): 61.5 µM | TGI (HCT-116 colon): > 100 µM | TGI (HCT-15 colon): > 100 µM | TGI (HL-60(TB) leukemia): > 100 µM | TGI (HOP-62 NSCLC): 39.8 µM | TGI (HOP-92 NSCLC): > 100 µM | TGI (HS 578T breast): > 100 µM | TGI (HT29 colon): > 100 µM | TGI (IGROV1 ovarian): > 100 µM | TGI (K-562 leukemia): > 100 µM | TGI (KM12 colon): > 100 µM | TGI (LOX IMVI melanoma): 37.3 µM | TGI (M14 melanoma): > 100 µM | TGI (MALME-3M melanoma): > 100 µM | TGI (MCF7 breast): > 100 µM | TGI (MDA-MB-231 breast): 47.3 µM | TGI (MDA-MB-435): > 100 µM | TGI (MDA-N): > 100 µM | TGI (MOLT-4 leukemia): > 100 µM | TGI (NCI-H226 lung): 92.2 µM | TGI (NCI-H23 lung): 57.5 µM | TGI (NCI-H460 lung): > 100 µM | TGI (NCI-H522 lung): > 100 µM | TGI (NCI/ADR-RES ovarian): > 100 µM | TGI (OVCAR-3 ovarian): > 100 µM | TGI (OVCAR-4 ovarian): 76.7 µM | TGI (OVCAR-5 ovarian): > 100 µM | TGI (OVCAR-8 ovarian): 31.2 µM | TGI (PC-3 prostate): > 100 µM | TGI (RPMI-8226 leukemia): > 100 µM | TGI (RXF 393 renal): 84.5 µM | TGI (SF-268 CNS): > 100 µM | TGI (SF-295 CNS): > 100 µM | TGI (SK-MEL-2 melanoma): > 100 µM | TGI (SK-MEL-28 melanoma): > 100 µM | TGI (SK-MEL-5 melanoma): 51.9 µM | TGI (SK-OV-3 ovarian): 47.5 µM | TGI (SN12C renal): 96.3 µM | TGI (SNB-19 CNS): > 100 µM | TGI (SNB-75 CNS): 45.5 µM | TGI (SR leukemia): > 100 µM | TGI (SW-620 colon): > 100 µM | TGI (T-47D breast): > 100 µM | TGI (TK-10 renal): 36.7 µM | TGI (U251 CNS): > 100 µM | TGI (UACC-257 melanoma): > 100 µM | TGI (UACC-62 melanoma): > 100 µM | TGI (UO-31 renal): 36.1 µM

Cc1ncc(-c2nnnn2-c2ccccc2)c(C(=O)O)n1
TGI (786-0 renal): > 100 µM | TGI (A498 renal): > 100 µM | TGI (A549 NSCLC): > 100 µM | TGI (ACHN renal): > 100 µM | TGI (BT-549 breast): > 100 µM | TGI (CAKI-1 renal): > 100 µM | TGI (CCRF-CEM leukemia): > 100 µM | TGI (COLO 205 colon): > 100 µM | TGI (DU-145 prostate): > 100 µM | TGI (EKVX NSCLC): > 100 µM | TGI (HCC-2998 colon): > 100 µM | TGI (HCT-116 colon): > 100 µM | TGI (HCT-15 colon): > 100 µM | TGI (HL-60(TB) leukemia): > 100 µM | TGI (HOP-62 NSCLC): > 100 µM | TGI (HOP-92 NSCLC): > 100 µM | TGI (HS 578T breast): > 100 µM | TGI (HT29 colon): > 100 µM | TGI (IGROV1 ovarian): > 100 µM | TGI (K-562 leukemia): > 100 µM | TGI (KM12 colon): > 100 µM | TGI (LOX IMVI melanoma): > 100 µM | TGI (M14 melanoma): > 100 µM | TGI (MALME-3M melanoma): > 100 µM | TGI (MCF7 breast): > 100 µM | TGI (MDA-MB-231 breast): > 100 µM | TGI (MDA-MB-435): > 100 µM | TGI (MDA-N): > 100 µM | TGI (MOLT-4 leukemia): > 100 µM | TGI (NCI-H226 lung): > 100 µM | TGI (NCI-H23 lung): > 100 µM | TGI (NCI-H460 lung): > 100 µM | TGI (NCI-H522 lung): > 100 µM | TGI (NCI/ADR-RES ovarian): > 100 µM | TGI (OVCAR-3 ovarian): > 100 µM | TGI (OVCAR-5 ovarian): > 100 µM | TGI (OVCAR-8 ovarian): > 100 µM | TGI (PC-3 prostate): > 100 µM | TGI (RPMI-8226 leukemia): > 100 µM | TGI (RXF 393 renal): > 100 µM | TGI (SF-268 CNS): > 100 µM | TGI (SF-295 CNS): > 100 µM | TGI (SF-539 CNS): > 100 µM | TGI (SK-MEL-2 melanoma): > 100 µM | TGI (SK-MEL-28 melanoma): > 100 µM | TGI (SK-MEL-5 melanoma): > 100 µM | TGI (SK-OV-3 ovarian): > 100 µM | TGI (SN12C renal): > 100 µM | TGI (SNB-19 CNS): > 100 µM | TGI (SNB-75 CNS): > 100 µM | TGI (SR leukemia): > 100 µM | TGI (SW-620 colon): > 100 µM | TGI (T-47D breast): > 100 µM | TGI (TK-10 renal): > 100 µM | TGI (U251 CNS): > 100 µM | TGI (UACC-257 melanoma): > 100 µM | TGI (UACC-62 melanoma): > 100 µM | TGI (UO-31 renal): > 100 µM

Cc1cc(S(=O)(=O)Nc2n[nH]c(-c3ccc(Cl)cn3)n2)c(S)cc1Cl
TGI (786-0 renal): > 100 µM | TGI (A498 renal): > 100 µM | TGI (A549 NSCLC): > 100 µM | TGI (ACHN renal): > 100 µM | TGI (BT-549 breast): > 100 µM | TGI (CAKI-1 renal): > 100 µM | TGI (COLO 205 colon): > 100 µM | TGI (DU-145 prostate): > 100 µM | TGI (EKVX NSCLC): > 100 µM | TGI (HCC-2998 colon): > 100 µM | TGI (HCT-116 colon): > 100 µM | TGI (HCT-15 colon): > 100 µM | TGI (HL-60(TB) leukemia): > 100 µM | TGI (HOP-62 NSCLC): > 100 µM | TGI (HOP-92 NSCLC): > 100 µM | TGI (HS 578T breast): 87.2 µM | TGI (HT29 colon): > 100 µM | TGI (IGROV1 ovarian): > 100 µM | TGI (KM12 colon): > 100 µM | TGI (LOX IMVI melanoma): > 100 µM | TGI (M14 melanoma): > 100 µM | TGI (MALME-3M melanoma): > 100 µM | TGI (MCF7 breast): > 100 µM | TGI (MDA-MB-231 breast): > 100 µM | TGI (MDA-MB-435): > 100 µM | TGI (MDA-N): > 100 µM | TGI (MOLT-4 leukemia): > 100 µM | TGI (NCI-H226 lung): > 100 µM | TGI (NCI-H460 lung): > 100 µM | TGI (NCI-H522 lung): > 100 µM | TGI (NCI/ADR-RES ovarian): > 100 µM | TGI (OVCAR-3 ovarian): > 100 µM | TGI (OVCAR-4 ovarian): > 100 µM | TGI (OVCAR-5 ovarian): > 100 µM | TGI (OVCAR-8 ovarian): > 100 µM | TGI (PC-3 prostate): > 100 µM | TGI (RPMI-8226 leukemia): > 100 µM | TGI (RXF 393 renal): > 100 µM | TGI (SF-268 CNS): > 100 µM | TGI (SF-539 CNS): > 100 µM | TGI (SK-MEL-2 melanoma): > 100 µM | TGI (SK-MEL-28 melanoma): > 100 µM | TGI (SK-MEL-5 melanoma): > 100 µM | TGI (SK-OV-3 ovarian): > 100 µM | TGI (SN12C renal): > 100 µM | TGI (SNB-19 CNS): 92.5 µM | TGI (SNB-75 CNS): > 100 µM | TGI (SR leukemia): > 100 µM | TGI (SW-620 colon): > 100 µM | TGI (T-47D breast): > 100 µM | TGI (TK-10 renal): > 100 µM | TGI (U251 CNS): > 100 µM | TGI (UACC-257 melanoma): > 100 µM | TGI (UACC-62 melanoma): > 100 µM | TGI (UO-31 renal): 99.4 µM
